Measurements published in patent US20220288028A1, “A THERAPEUTIC APPROACH FOR TREATING NON-INFECTIOUS OCULAR IMMUNOINFLAMMATORY DISORDERS” (The Schepens Eye Research Institute, Inc., priority 2019, published 2022).
Where no end group is shown, it is not given here.

Tests used:
CD4^+CD25^+Foxp3^+ Tregs = assay: Tregs co-cultured with SP with or without Spantide I: phenotype, cytokines, suppression of effector T cell proliferation; type: cell-based, C57BL/6 mice
Procedure: CD4^+CD25^+Foxp3^+ Tregs were isolated from draining lymph nodes (DLN) of naïve female C57BL/6 mice.
Isolated Tregs were co-cultured with SP (1 μM) with or without Spantide I (10 μM) for 48 hours. Phenotype of Tregs was evaluated by flow cytometry, and the capacity of Tregs to suppress effector T cell proliferation was investigated.

[1] = tested on: bone marrow-derived dendritic cells (BMDCs); assay: BMDC maturation (MHC II expression) in the presence of SP, flow cytometry; type: cell-based, C57BL/6 mice; conditions: SP 25, 50 and 100 μg/mL for 18 hours; p=0.03 and p=0.02 for 50 and 100 μg/mL vs. vehicle
Procedure: Generation of Bone Marrow-Derived Dendritic Cells (BMDCs): Long bones (femur and tibia) were harvested from C57BL/6 mice and cell suspension was prepared. Cells were incubated with Red blood cell (RBC) lysis buffer (Sigma-Aldrich, St. Louis, Mo.) at 37° C. for 10 minutes. […]
Single Cell Suspension Preparation and Flow Cytometry: Submandibular and cervical draining lymph nodes (DLNs) were harvested and single cell suspensions were prepared. […] Stained cells were examined using an LSRII Flow Cytometer (BD Biosciences, Franklin Lakes, N.J., USA), and data were analyzed using commercial Summit software (Summit v4.3; Dako Colorado, Inc., Fort Collins, Colo.).
Mature APCs play a key role in the activation of THh17 cells and the autoimmune response in DED (Barabino S. et al. Prog Retin Eye Res 2012, 31:271-85; Stevenson W, Chauhan S K, Dana R: Dry eye disease: an immune-mediated ocular surface disorder. Arch Ophthalmol 2012, 130:90-100; Hamrah P, et al. Invest Ophthalmol Vis Sci 2003, 44:581-9). Given that increased SP levels in response to desiccating stress was observed, the effect of SP on maturation of APCs was next evaluated. […]

Foxp3^+CD4^+ Tregs = assay: Isolated Tregs co-cultured with SP, with or without NK1R antagonist (recovered Tregs); type: cell-based, mice; conditions: SP at 0.1, 1, and 10 nM in vitro; tested 0.01-10 nM
Procedure: FIGS. 3A and 3B show the results of the in vitro effect of SP on Treg cells. The normal functional Foxp3^+CD4^+ Tregs were isolated from naive mice and co-cultured with different doses of SP, e.g., at 0.01, 0.1, 1, and 10 nM in vitro. […] On the contrary, addition of the NK1R antagonist prevented the loss of Tregs (FIG. 3B).

[2] = tested on: corneal epithelial wound healing; conditions: topical application, diabetic mice; cited from earlier work

Substance: SP: substance P, an 11-amino acid neuropeptide, endogenous ligand of NK1R (RPKPQQFFGLM-NH2; ends and bridges not checked; UniProt P20366 58-68, looked up)
- expression of inhibitory molecules Foxp3, CTLA4 and PD-1 by Tregs (CD4^+CD25^+Foxp3^+ Tregs; SP 1 μM, 48 hours, in vitro): suppresses the expression
- secretion of immunoregulatory cytokines (TGFβ and IL-10) by Tregs (CD4^+CD25^+Foxp3^+ Tregs; SP 1 μM, 48 hours, in vitro): significantly lower levels
- capacity of Tregs to suppress effector T cell proliferation in vitro (CD4^+CD25^+Foxp3^+ Tregs; Tregs pre-incubated with SP): lower capacity
- mean fluorescence intensity (MFI) of MHC II in BMDCs [1]: significant and dose-dependent increase
- Tregs recovered after co-culture with SP (Foxp3^+CD4^+ Tregs): significantly reduced Tregs
- corneal epithelial wound healing [2]: promotes corneal epithelial wound healing
